The record followed here is ChEMBL document CHEMBL1201862, “PubChem BioAssay data set” (2004).

Each structure is given as a SMILES string.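 Exposure lasted 48 hours, with cells grown in 96-well plates and compounds tested at five concentrations. The concentration for 50% growth inhibition is given as GI50.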 Calls of active or inactive are those of the source. Cut-off read from the data, not from the text of the source: active = GI50 up to about 1.1 µM and inactive = higher.

Common to all, as to experiment: NCI anticancer screen, dose series, 48 h
Assay [1] deals with A549.
For assay [2], the system named is MDA-N.
Assay [3] has as its system UO-31.
Assay [4] has as its system UACC-62.
Assay [5] has as its system CAKI-1.
In assay [6] the test system is LXFL 529.
In assay [7] the test system is MCF7.
Assay [8] concerns HOP-92.
For assay [9], the system named is EKVX.
Assay [10] relates to SK-MEL-28.
Assay [11] deals with SF-268.
Assay [12] has as its system MDA-MB-435.
The subject of assay [13] is SN12C.
Assay [14] relates to MOLT-4.
For assay [15], the system named is HCT-15.
The subject of assay [16] is K562.
Assay [17] concerns HOP-62.
Assay [18] concerns SK-MEL-5.
Assay [19] relates to NCI-H226.
For assay [20], the system named is RXF 393.

`Cc1ccc(S(=O)(=O)SC(C)(C)C)cc1`: the GI50 in assay [1] is > 100 µM (inactive); in assay [2] it was > 10000 nM (inactive); in [3] it was > 100 µM (inactive); in assay [4] it was 19.9 µM (inactive); in [5] it was 22.2 µM (inactive); in assay [6], 32.7 µM (inactive). Further, the GI50 in [7] is 19.2 µM (inactive); in assay [8], 63 µM (inactive); in assay [9], > 45.8 µM (inactive); in assay [10] it was 48.4 µM (inactive); in [11] it was 45.5 µM (inactive); in assay [12] it was 31.4 µM (inactive). Moreover, the GI50 was 38.9 µM (inactive) in assay [13]; 18.2 µM (inactive) in [14]; 23.4 µM in [15]; 19.9 µM (inactive) in [16]; > 60.3 µM (inactive) in assay [17]; 46.1 µM (inactive) in assay [18]. In [19], the GI50 was > 86.7 µM (inactive).
With `Cc1cc(=O)cc2sc3cc(Cl)ccc3nc1-2`, the GI50 is 4.49 µM (inactive) in assay [1]; 13.7 µM (inactive) in assay [3]; 6.84 µM (inactive) in [4]; 19.7 µM (inactive) in [5]; 15.2 µM (inactive) in assay [6]; 22.3 µM (inactive) in [8]. The GI50 in [9] is 4.72 µM (inactive); in [10] it was 17.8 µM (inactive); in assay [11] it was 6.84 µM (inactive); in assay [13] it was 7.45 µM (inactive); in assay [14], 12.6 µM (inactive); in [15], 3.95 µM. Besides, the GI50 in assay [20] is 4.76 µM (inactive); in [16] it was 4.09 µM (inactive); in assay [17] it was 15.6 µM (inactive); in assay [18], 3.65 µM (inactive); in assay [19], 25.4 µM (inactive).
For the molecule `CCCN1C(=O)C/C(=C\C(C)=O)Nc2ccccc21`, the GI50 in assay [1], in assay [3], in [4], in assay [5], in assay [6] and in assay [8] was > 100 µM (inactive) throughout. Further, the GI50 in [9] was > 100 µM (inactive); in assay [10] it was > 100 µM (inactive); in assay [11], > 100 µM (inactive); in assay [13], > 100 µM (inactive); in assay [14] it was > 100 µM (inactive); in [15], greater than 100 µM. Also, the GI50 was > 100 µM (inactive) in assay [20]; > 100 µM (inactive) in assay [16]; > 100 µM (inactive) in [17]; > 100 µM (inactive) in [18]; 37.2 µM (inactive) in [19].
On to `O=C(CC1(O)C(=O)Nc2c(Cl)cc(Cl)cc21)c1ccc([N+](=O)[O-])cc1` (stereo not given), for which the GI50 in assay [1] is > 79.8 µM (inactive); in assay [3], 17.4 µM (inactive); in assay [4], 28.1 µM (inactive); in [5], > 53.8 µM (inactive); in assay [6], 25.6 µM (inactive); in assay [8] it was 24.3 µM (inactive). In addition, the GI50 in [9] is 43.4 µM (inactive); in [10] it was > 44 µM (inactive); in assay [11], > 50.8 µM (inactive); in assay [13] it was > 45.7 µM (inactive); in assay [14] it was > 59.4 µM (inactive); in assay [15], greater than 55.3 µM. In addition, the GI50 is > 100 µM (inactive) in assay [20]; 43.4 µM (inactive) in assay [16]; > 100 µM (inactive) in assay [17]; 22.8 µM (inactive) in [18]; 30.6 µM (inactive) in assay [19].
Take `CC(C)n1c2c([n+](C)c1/C=C/c1ccccc1)C(=O)c1ccccc1C2=O`: the GI50 in [1] was 0.587 µM (active); in [2] it was 299 nM (active); in [3] it was 3.55 µM (inactive); in [4] it was 0.198 µM (active); in assay [5] it was 2.79 µM (inactive); in assay [6] it was 0.0861 µM (active). The GI50 in assay [7] is 0.0516 µM (active); in assay [8] it was 0.309 µM (active); in assay [9], 0.206 µM (active); in [10] it was 0.312 µM (active); in assay [11], 0.0703 µM (active); in assay [12], 0.237 µM (active). Further, the GI50 in assay [13] was 0.0495 µM (active); in [14], 0.0504 µM (active); in assay [15] it was 3.67 µM; in assay [20] it was 0.322 µM (active); in assay [16] it was 0.0592 µM (active); in assay [17], 0.398 µM (active). Besides, the GI50 was 0.07 µM (active) in [18] and 0.791 µM (active) in [19].
Turning to `CC1=Nc2c(O)nc(S)nc2NC(c2c(Cl)cccc2Cl)C1` (stereo not given), the GI50 in assay [1] was 3.43 µM (inactive); in assay [2], 552 nM (active); in assay [3], 5.19 µM (inactive); in [4] it was 1.78 µM (inactive); in [5], 5.51 µM (inactive); in assay [6], 2.96 µM (inactive). Further, the GI50 was 1.13 µM (inactive) in [7]; 9.31 µM (inactive) in assay [8]; 7.18 µM (inactive) in assay [9]; 2.73 µM (inactive) in [10]; 1.57 µM (inactive) in [11]; 1.49 µM (inactive) in assay [12]. Also, the GI50 in assay [13] is 1.42 µM (inactive); in assay [14], 0.646 µM (active); in assay [15] it was 3.05 µM; in assay [20] it was 5.26 µM (inactive); in [16], 0.649 µM (active); in assay [17] it was 6.84 µM (inactive). Also, the GI50 is 3.58 µM (inactive) in assay [18] and 5.21 µM (inactive) in assay [19].
